According to patent US12202790B2, “Sulfonamide derivatives having selective Nox inhibiting activity” (GLUCOX BIOTECH AB, priority 2018, dated 2025):

Experiments:
[1] = molecular target: Nox1 expressing CHO cells (Homo sapiens (Human), UniProt Q9Y5S8); assay: Oxygen consumption in Nox1 expressing CHO cells; format: cell-based
[2] = tested on: rat lens epithelial explants; assay: qRT-PCR gene expression analysis in TGFβ-treated rat lens epithelial explants; format: cell-based; details: 48 hours of culture, Example 11 2.4 μM, Example 17 0.3 μM; for aSMA expression (mRNA): Example 17 at a higher degree than Example 11
Protocol: Lens epithelial explants were prepared as previously described (Wang Q, et al., Investigative ophthalmology & visual science. 2010; 51(7):3599-610) and cultured in Medium 199 (M199) with Earle's salts (Life Technologies, USA), supplemented with 50 μg/mL L-glutamine, 50 IU/mL penicillin/50 μg/mL streptomycin (Thermo Scientific, USA), 2.5 μg/mL Amphostat B (Thermo Scientific, USA) and 0.1% bovine serum albumin (BSA) (Sigma, USA). M199 was equilibrated at 37° C., 5% CO2. To induce EMT, recombinant TGF-β2 was added to media in each culture dish at a working concentration of […] (R&D Systems, USA). Prior to the addition of TGF-β2, some explants were pre-treated for 30 minutes with Example 11 or Example 17, at working concentrations of 2.4 μM and 0.3 μM, respectively. The progression of EMT in live cells was observed and captured using phase-contrast microscopy (Olympus CK2, Japan) and a digital camera (Leica DFC-280, Germany). Percentage cell loss quantification was performed using the thresholding function of ImageJ (NIH), such that cells could be distinguished from bare lens capsule.
Quantitative RT-PCR (qRT-PCR) gene expression analysis was performed as previously described (Shu D, et al., Investigative ophthalmology & visual science. 2017; 58(2):781-96.).
For data analysis, the 2^-ΔΔCt method was used to estimate the relative fold change in gene expression. Using the 2^-ΔΔCt method, the gene of interest was quantified relative to, firstly, the housekeeping gene, GAPDH and, secondly, to relative gene expression in untreated explants.

[3] = molecular target: Nox4 expressing HEK293 cells (Homo sapiens (Human), UniProt Q9NPH5); assay: Oxygen consumption in Nox4 expressing HEK293 cells; format: cell-based
glucose oxidase = glucose oxidase (Aspergillus niger, UniProt P13006); assay: Amplex Red and glucose oxidase (GO) assay; format: biochemical; parameters: key: The sign “—” stands for “inactive”
Protocol: (§1) Reactive oxygen produced in whole cells or in membrane preparation of Nox1, Nox3, Nox4, Nox5 and xanthine oxidase and glucose oxidase were determined using Amplex Red as detection probe of formed H2O2. Amplex Red (10-acetyl-3,7-dihydroxyphenoxazine) in combination with HRP and co-factors reacts with H2O2 in a 1:1 stoichiometry to form a highly fluorescent resorufin excitated at 544 nm producing emission at 590 nm.
The assay was performed using a modified form of Invitrogen Amplex™ Red Glucose/Glucose Oxidase Assay Kit Cat no: A22189. Test compounds were incubated with 5 mU/ml glucose oxidase for 30 min at room temperature, followed by the addition of substrate and detection mix (final concentrations of 0.1 U/ml HRP, 10 mM glucose, 50 μM Amplex Red in phosphate buffer pH 7.4) and then fluorescence detection of hydrogen peroxide production was performed during 30 min at 37° C. in a plate reader that use excitation at 544 nm producing emission at 590 nm.

hNox4 = hNox4 (Homo sapiens (Human), UniProt Q9NPH5); assay: hNox4 membrane assay (Amplex Red, cell-free); format: biochemical
Protocol: as §1
Membranes from transfected cells overexpressing Nox1 (CHO), Nox2 (PLB), Nox3 (HEK), Nox4 (HEK) or Nox5 (HEK) were prepared as described in Pailcz et al., 2001, J. Biol. Chem, 76, 3090-3097. Cells were suspended and homogenized in sonication buffer containing PBS, sucrose (11%), NaCl (120 mM) and EGTA (1 mM) supplemented with protease inhibitors and further processed and then broken by sonication cooled with an ice bath. Then the sample was centrifuged at 200×g for 10 min. Supernatant was carefully added on top of a 17/40% discontinuous sucrose gradient and centrifuged at 150 000×g for 60 min. Membranes containing Nox isoforms were collected at the 17/40% sucrose interface as described by Jaquet V, et al., Br J Pharmacol 2011; 164:507-520. For the Nox isoforms Nox1, Nox2, Nox3 a subunit-specific cell-free, membrane-based system has been developed and recombinant proteins of the subunits were added to receive activation of the Nox-iso forms in the cell-free assay. The Amplex Red assay was performed in black 96-well flat bottom plates. Assay reagents including HRP ([…]), FAD (6 μM), phosphatidic acid (15 μM) and Amplex Red (50 μM) were added followed by NADPH (30 μM) to initiate production of hydrogen peroxide. The production of hydrogen peroxide was followed by use of a fluorescence plate reader, read at 37° C. every minute between 30-60 minutes.

[4] = tested on: human brain micro-vascular endothelial cells; assay: In vitro stroke model: endothelial cells subjected to hypoxia and glucose deprivation; format: cell-based; details: hypoxia and glucose deprivation 5 h (Example 44: 6 h), viability after 24 hours of culture
Protocol: (§2) FIG. 1 is a bar chart showing cell viability as a ratio of basal cell viability of human brain microvascular endothelial cells subjected to hypoxia and starvation (OGD: oxygen and glucose deprivation) for 5 h and then cultured for 24 h in the absence or presence of Example 11 at a concentration of 2, 10 or 20 μM. Basal=no hypoxia or starvation, cells cultured in the presence of culture medium only. OGD=5 h of hypoxia or starvation, cells cultured in the presence of culture medium only.
as §2, with “2” for “1”, “(OGD)” for “(OGD: oxygen and glucose deprivation)”, “17” for “11”, “0.3, 3 or” for “2,”, “10” for “10 or 20”
FIG. 3 is a bar chart showing cell viability as a ratio of basal cell viability of human brain microvascular endothelial cells subjected to hypoxia and starvation (OGD: oxygen and glucose deprivation) for 6 h and then cultured for 24 h in the absence or presence of Example 44 at a concentration of from 0.6 to 9.6 μM. Basal=no hypoxia or starvation, cells cultured in the presence of culture medium only. OGD=6 h of hypoxia or starvation, cells cultured in the presence of culture medium only (*p<0.05, ***p<0.001).
Hippocampal brain slices and human brain micro-vascular endothelial cells were subjected to hypoxia and glucose deprivation (starvation) for 5 hours and were tested for viability after 24 hours of culture in the presence of Example 11 or Example 17 at different concentrations. Additionally, human brain micro-vascular endothelial cells were subjected to hypoxia and glucose deprivation (starvation) for 6 hours and were tested for viability after 24 hours of culture in the presence of Example 44 at various concentrations.

glucose oxidase, sequence (P13006 17-605): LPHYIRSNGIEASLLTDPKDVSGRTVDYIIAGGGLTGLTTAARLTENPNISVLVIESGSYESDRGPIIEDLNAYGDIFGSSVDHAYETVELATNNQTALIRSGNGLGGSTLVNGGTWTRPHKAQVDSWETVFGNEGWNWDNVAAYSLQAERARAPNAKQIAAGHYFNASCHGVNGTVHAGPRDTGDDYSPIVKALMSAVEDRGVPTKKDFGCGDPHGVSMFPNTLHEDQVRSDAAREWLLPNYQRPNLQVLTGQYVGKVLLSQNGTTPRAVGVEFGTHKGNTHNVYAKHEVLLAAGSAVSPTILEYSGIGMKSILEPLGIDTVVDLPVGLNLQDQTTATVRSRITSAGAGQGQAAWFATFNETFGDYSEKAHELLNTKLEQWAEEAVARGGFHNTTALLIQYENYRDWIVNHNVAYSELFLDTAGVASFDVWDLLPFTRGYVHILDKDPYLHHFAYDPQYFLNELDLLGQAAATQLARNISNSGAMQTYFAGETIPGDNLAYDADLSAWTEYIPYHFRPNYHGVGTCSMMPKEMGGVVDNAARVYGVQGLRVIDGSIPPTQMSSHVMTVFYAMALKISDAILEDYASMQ
hNox4, sequence (Q9NPH5 whole entry): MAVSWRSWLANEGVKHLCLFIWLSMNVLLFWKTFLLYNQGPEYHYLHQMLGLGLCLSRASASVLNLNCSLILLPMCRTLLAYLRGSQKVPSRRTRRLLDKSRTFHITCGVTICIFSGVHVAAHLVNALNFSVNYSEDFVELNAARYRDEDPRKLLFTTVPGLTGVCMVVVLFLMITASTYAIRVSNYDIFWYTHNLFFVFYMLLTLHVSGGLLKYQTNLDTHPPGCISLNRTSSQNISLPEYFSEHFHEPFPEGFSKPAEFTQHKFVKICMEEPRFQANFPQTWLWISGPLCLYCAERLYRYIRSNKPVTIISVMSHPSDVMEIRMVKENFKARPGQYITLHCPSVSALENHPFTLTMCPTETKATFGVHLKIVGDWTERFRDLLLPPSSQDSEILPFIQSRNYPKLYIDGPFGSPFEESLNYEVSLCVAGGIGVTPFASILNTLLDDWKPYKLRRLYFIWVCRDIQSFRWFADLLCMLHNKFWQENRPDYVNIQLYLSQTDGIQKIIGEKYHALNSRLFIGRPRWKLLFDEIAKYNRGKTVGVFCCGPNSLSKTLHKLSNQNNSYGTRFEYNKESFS
hNox4, sequence (P13498 2-195 partner): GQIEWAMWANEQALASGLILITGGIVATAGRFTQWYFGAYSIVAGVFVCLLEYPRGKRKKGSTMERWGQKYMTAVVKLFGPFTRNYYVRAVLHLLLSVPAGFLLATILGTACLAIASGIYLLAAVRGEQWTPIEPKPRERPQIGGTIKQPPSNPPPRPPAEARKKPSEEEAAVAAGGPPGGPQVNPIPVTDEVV
Nox4 expressing HEK293 cells, sequence (Q9NPH5 whole entry): as the sequence (Q9NPH5 whole entry) above
Nox4 expressing HEK293 cells, sequence (P13498 2-195 partner): as the sequence (P13498 2-195 partner) above
Nox1 expressing CHO cells, sequence (Q9Y5S8 whole entry): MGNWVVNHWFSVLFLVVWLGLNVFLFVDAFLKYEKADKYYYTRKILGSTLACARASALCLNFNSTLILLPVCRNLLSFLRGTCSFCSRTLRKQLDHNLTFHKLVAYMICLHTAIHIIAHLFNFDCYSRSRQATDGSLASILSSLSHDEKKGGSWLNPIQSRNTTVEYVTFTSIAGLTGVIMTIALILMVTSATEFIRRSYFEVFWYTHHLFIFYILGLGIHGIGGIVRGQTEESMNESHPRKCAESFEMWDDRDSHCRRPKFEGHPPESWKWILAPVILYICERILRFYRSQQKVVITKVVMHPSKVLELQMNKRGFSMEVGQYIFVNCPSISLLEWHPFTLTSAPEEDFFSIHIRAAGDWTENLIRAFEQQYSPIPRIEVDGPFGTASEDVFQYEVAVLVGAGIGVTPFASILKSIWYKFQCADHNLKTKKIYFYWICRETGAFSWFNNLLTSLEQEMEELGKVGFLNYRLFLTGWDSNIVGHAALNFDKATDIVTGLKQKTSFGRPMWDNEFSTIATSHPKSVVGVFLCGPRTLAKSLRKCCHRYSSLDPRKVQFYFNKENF
Nox1 expressing CHO cells, sequence (P13498 2-195 partner): as the sequence (P13498 2-195 partner) above

| SMILES | Inhibition of oxygen consumption in Nox1 expressing CHO cells [1] | TGFβ-driven upregulation of Col1A and Fn (mRNA) [2] | aSMA expression (mRNA) [2] | Inhibition of oxygen consumption in Nox4 expressing HEK293 cells [3] | IC50 GO (glucose oxidase) | Ki (hNox4) [nM] | neuroprotective effect (cell viability) [4] |
| --- | --- | --- | --- | --- | --- | --- | --- |
| Cc1ccccc1CCNS(=O)(=O)c1c(C)cccc1Cl [Example 11, 2-chloro-6-methyl-N-[2-(2-methylphenyl)ethyl]benzene-1-sulfonamide] | No | downregulate the TGFβ-driven upregulation of Col1A and Fn | downregulate aSMA expression | yes | — | 4400 | neuroprotective effect |
| O=S(=O)(NCCc1ccccc1Cl)c1c(Cl)cc(C2CC2)cc1Cl [Example 26, 2,6-dichloro-N-[2-(2-chlorophenyl)ethyl]-4-cyclopropylbenzene-1-sulfonamide] | No |  |  | yes | — | 2200 |  |
| Cc1ccccc1CCNS(=O)(=O)c1c(Cl)cc(Br)cc1Cl [Example 17, 4-bromo-2,6-dichloro-N-[2-(2-methylphenyl)ethyl]benzene-1-sulfonamide] | No | downregulate the TGFβ-driven upregulation of Col1A and Fn | downregulate aSMA expression | yes | — | 560 | neuroprotective effect |
| Cc1cc(Cl)c(S(=O)(=O)NCCc2ccccc2O)c(C)c1O [Example 44, 6-chloro-3-hydroxy-N-[2-(2-hydroxyphenyl)ethyl]-2,4-dimethyl-benzenesulfonamide] |  |  |  |  |  |  | neuroprotective effect |
